The subject of experiment [1] is antibodies in sera from SARS patients (sera 1a, 1b, 2, 6, 37, 62, London, SARS-yellow, SARS-green). It counts as binding, human. Further details: Binding of serum 6 to linear peptides of protein X1 of SARS-CoV Urbani / Binding of serum 37 to linear peptides of protein X1 of SARS-CoV Urbani / Binding of serum 6 to looped/cyclic peptide (PEPSCAN-ELISA) / Binding of serum 37 to looped/cyclic peptide (PEPSCAN-ELISA) / Binding of serum 37 to looped/cyclic peptides of protein X1 of SARS-CoV Urbani / Binding of serum 6 to linear peptides of protein X2 / Binding of serum 37 to linear peptides of protein X2 / Binding of serum 37 to looped/cyclic peptides of protein X2 of SARS-CoV Urbani / Binding of serum 6 to linear peptides of protein M of SARS-CoV Urbani / Binding of serum 37 to linear peptides of protein M of SARS-CoV Urbani / Binding of serum 6 to looped/cyclic peptides of protein M of SARS-CoV Urbani / Binding of serum 37 to looped/cyclic peptides of protein M of SARS-CoV Urbani / Binding of serum 6 to linear peptides of protein X3 of SARS-CoV Urbani / Binding of serum 37 to linear peptides of protein X3 of SARS-CoV Urbani / Binding of serum 37 to looped/cyclic peptides of protein X3 of SARS-CoV Urbani / Binding of serum 6 to linear peptides of protein X4 of SARS-CoV Urbani / Binding of serum 37 to linear peptides of protein X4 of SARS-CoV Urbani / Binding of serum 37 to looped/cyclic peptides of protein X4 of SARS-CoV Urbani / Binding of serum 6 to linear peptides of protein X5 of SARS-CoV Urbani / Binding of serum 37 to linear peptides of protein X5 of SARS-CoV Urbani / Binding of serum 37 to looped/cyclic peptides of protein X5 of SARS-CoV Urbani / Binding of serum 6 to linear peptides of protein N of SARS-CoV Urbani / Binding of serum 37 to linear peptides of protein N of SARS-CoV Urbani / Binding of serum 6 to linear peptide (PEPSCAN-ELISA) / Binding of serum 1a to looped/cyclic peptides of protein N of SARS-CoV Urbani / Binding of serum 1b to looped/cyclic peptides of protein N of SARS-CoV Urbani / Binding of serum 2 to looped/cyclic peptides of protein N of SARS-CoV Urbani / Binding of serum 6 to looped/cyclic peptides of protein N of SARS-CoV Urbani / Binding of serum 37 to looped/cyclic peptides of protein N of SARS-CoV Urbani / Binding of serum 62 to looped/cyclic peptides of protein N of SARS-CoV Urbani / Binding of serum London to looped/cyclic peptides of protein N of SARS-CoV Urbani / Binding of serum SARS-green to looped/cyclic peptides of protein N of SARS-CoV Urbani: unit not given here.

For experiment [2], the system named is control sera (pooled serum of ten healthy LUMC hospital workers; commercial negative donor pooled serum from the Dutch bloodbank). The experiment is classed as binding, human. Also noted: Binding of Control serum LUMC to linear peptides / Binding of Control serum Blood-bank to linear peptides / Binding of Control serum LUMC to looped peptides / Binding of Control Serum Blood-Bank to Looped peptides / Binding of Control serum LUMC to linear peptides of the protein M of SARS-CoV Urbani / Binding of Control serum Blood-bank to linear peptides of the protein M of SARS-CoV Urbani / Binding of Control serum LUMC to looped peptides of the protein M of SARS-CoV Urbani / Binding of Control Serum Blood-Bank to Looped peptides of the protein M of SARS-CoV Urbani: unit not given here.

For experiment [3], the system named is rabbit serum obtained by immunizing a rabbit with the SARS-CoV strain Frankfurt 1. The experiment is classed as binding. Also noted: Binding of a rabbit serum to linear peptides / Binding of a rabbit serum to looped peptides / Rabbit serum linear peptides / Rabbit serum looped peptides / Binding of a rabbit serum to linear peptides of protein N of SARS-CoV Urbani (Rabbit serum linear peptides) / Binding of a rabbit serum to looped/cyclic peptides of protein N of SARS-CoV Urbani (Rabbit serum looped peptides): unit not given here.

As for LAWIMLLQFAYSNRN, in experiment [1], the “Binding of serum 1a to linear peptides of protein M of SARS-CoV Urbani” value is listed as 0.6, the “Binding of serum 1a to looped/cyclic peptides of protein M of SARS-CoV Urbani” value is recorded as 0.7, the “Binding of serum 1b to linear peptides of protein M of SARS-CoV Urbani” value was found to be 0.5 and the “Binding of serum 1b to looped/cyclic peptides of protein M of SARS-CoV Urbani” value was 0.7. In experiment [1], the “Binding of serum 2 to linear peptides of protein M of SARS-CoV Urbani” value came to 0.4, the “Binding of serum 2 to looped/cyclic peptides of protein M of SARS-CoV Urbani” value was found to be 0.4, the “Binding of serum 6 to linear peptides of protein M of SARS-CoV Urbani” value amounted to 0.2 and the “Binding of serum 6 to looped/cyclic peptides of protein M of SARS-CoV Urbani” value was 0.7. Also, in experiment [1], the “Binding of serum 37 to linear peptides of protein M of SARS-CoV Urbani” value was 0.7, the “Binding of serum 37 to looped/cyclic peptides of protein M of SARS-CoV Urbani” value is listed as 0.6, the “Binding of serum 62 to linear peptides of protein M of SARS-CoV Urbani” value was 0.7 and the “Binding of serum 62 to looped/cyclic peptides of protein M of SARS-CoV Urbani” value was found to be 0.6. Moreover, in experiment [1], the “Binding of serum London to linear peptides of protein M of SARS-CoV Urbani” value is 0.2, the “Binding of serum London to looped/cyclic peptides of protein M of SARS-CoV Urbani” value was determined as 0.2, the “Binding of serum SARS-green to linear peptides of protein M of SARS-CoV Urbani” value was 0.3 and the “Binding of serum SARS-green to looped/cyclic peptides of protein M of SARS-CoV Urbani” value was 0.4. In experiment [1], the “Binding of serum SARS-yellow to linear peptides of protein M of SARS-CoV Urbani” value stood at 0.0 and the “Binding of serum SARS-yellow to looped/cyclic peptides of protein M of SARS-CoV Urbani” value is 0.3. Further, in experiment [2], the “Binding of Control Serum Blood-Bank to Looped peptides of the protein M of SARS-CoV Urbani” value is on record as 0.6, the “Binding of Control serum Blood-bank to linear peptides of the protein M of SARS-CoV Urbani” value turned out to be 0.6, the “Binding of Control serum LUMC to linear peptides of the protein M of SARS-CoV Urbani” value amounted to 0.2 and the “Binding of Control serum LUMC to looped peptides of the protein M of SARS-CoV Urbani” value is 0.6. In addition, in experiment [3], the “Rabbit serum linear peptides” value came out at 0.8 and the “Rabbit serum looped peptides” value turned out to be 0.1.

Turning to LCALGKVLPFHRWHT, in experiment [1], the “Binding of serum 1a to linear peptides of protein X5 of SARS-CoV Urbani” value turned out to be 0.7, the “Binding of serum 1a to looped/cyclic peptides of protein X5 of SARS-CoV Urbani” value amounted to 0.4, the “Binding of serum 1b to linear peptides of protein X5 of SARS-CoV Urbani” value is on record as 0.6 and the “Binding of serum 1b to looped/cyclic peptides of protein X5 of SARS-CoV Urbani” value was determined as 0.2. In experiment [1], the “Binding of serum 2 to linear peptides of protein X5 of SARS-CoV Urbani” value turned out to be 0.7, the “Binding of serum 2 to looped/cyclic peptides of protein X5 of SARS-CoV Urbani” value was 0.5, the “Binding of serum 6 to linear peptides of protein X5 of SARS-CoV Urbani” value came to 0.5 and the “Binding of serum 6 to looped/cyclic peptides of protein X5 of SARS-CoV Urbani” value came to 0.4. Besides, in experiment [1], the “Binding of serum 37 to linear peptides of protein X5 of SARS-CoV Urbani” value was found to be 0.7, the “Binding of serum 37 to looped/cyclic peptides of protein X5 of SARS-CoV Urbani” value is on record as 0.4, the “Binding of serum 62 to linear peptides of protein X5 of SARS-CoV Urbani” value was 0.8 and the “Binding of serum 62 to looped/cyclic peptides of protein X5 of SARS-CoV Urbani” value turned out to be 0.6. Moreover, in experiment [1], the “Binding of serum London to linear peptides of protein X5 of SARS-CoV Urbani” value is given as 0.9, the “Binding of serum London to looped/cyclic peptides of protein X5 of SARS-CoV Urbani” value is recorded as 0.2, the “Binding of serum SARS-green to linear peptides of protein X5 of SARS-CoV Urbani” value worked out at 0.6 and the “Binding of serum SARS-green to looped/cyclic peptides of protein X5 of SARS-CoV Urbani” value is on record as 0.4. In experiment [1], the “Binding of serum SARS-yellow to linear peptides of protein X5 of SARS-CoV Urbani” value is on record as 0.2 and the “Binding of serum SARS-yellow to looped/cyclic peptides of protein X5 of SARS-CoV Urbani” value is reported as 0.4. Moreover, in experiment [2], the “Binding of Control Serum Blood-Bank to Looped peptides” value is given as 0.4, the “Binding of Control serum Blood-bank to linear peptides” value was found to be 0.7, the “Binding of Control serum LUMC to linear peptides” value came out at 0.5 and the “Binding of Control serum LUMC to looped peptides” value was 0.6. For the same sequence, in experiment [3], the “Rabbit serum linear peptides” value is recorded as 0.7 and the “Rabbit serum looped peptides” value is on record as 0.7.

For the sequence LFIRQEEVQQELYSP, in experiment [1], the “Binding of serum 1a to linear peptides of protein X4 of SARS-CoV Urbani” value amounted to 0.8, the “Binding of serum 1a to looped/cyclic peptides of protein X4 of SARS-CoV Urbani” value is on record as 0.7, the “Binding of serum 1b to linear peptides of protein X4 of SARS-CoV Urbani” value was found to be 0.7 and the “Binding of serum 1b to looped/cyclic peptides of protein X4 of SARS-CoV Urbani” value amounted to 0.5. Moreover, in experiment [1], the “Binding of serum 2 to linear peptides of protein X4 of SARS-CoV Urbani” value turned out to be 0.6, the “Binding of serum 2 to looped/cyclic peptides of protein X4 of SARS-CoV Urbani” value is 0.7, the “Binding of serum 6 to linear peptides of protein X4 of SARS-CoV Urbani” value is 0.5 and the “Binding of serum 37 to linear peptides of protein X4 of SARS-CoV Urbani” value is 0.7. In experiment [1], the “Binding of serum 37 to looped/cyclic peptides of protein X4 of SARS-CoV Urbani” value stood at 0.7, the “Binding of serum 62 to linear peptides of protein X4 of SARS-CoV Urbani” value came out at 0.8, the “Binding of serum 62 to looped/cyclic peptides of protein X4 of SARS-CoV Urbani” value turned out to be 0.8 and the “Binding of serum London to linear peptides of protein X4 of SARS-CoV Urbani” value came to 0.8. Besides, in experiment [1], the “Binding of serum London to looped/cyclic peptides of protein X4 of SARS-CoV Urbani” value turned out to be 0.3, the “Binding of serum SARS-green to linear peptides of protein X4 of SARS-CoV Urbani” value was 0.6, the “Binding of serum SARS-green to looped/cyclic peptides of protein X4 of SARS-CoV Urbani” value stood at 0.8 and the “Binding of serum SARS-yellow to linear peptides of protein X4 of SARS-CoV Urbani” value was found to be 0.7. In experiment [1], the “Binding of serum SARS-yellow to looped/cyclic peptides of protein X4 of SARS-CoV Urbani” value stood at 0.7. Besides, in experiment [2], the “Binding of Control Serum Blood-Bank to Looped peptides” value amounted to 0.8, the “Binding of Control serum Blood-bank to linear peptides” value worked out at 0.7, the “Binding of Control serum LUMC to linear peptides” value is 0.7 and the “Binding of Control serum LUMC to looped peptides” value is given as 0.8. In addition, in experiment [3], the “Rabbit serum linear peptides” value was 0.4 and the “Rabbit serum looped peptides” value is 0.4.

Regarding LFLIVAALVFLILCF, in experiment [1], the “Binding of serum 1a to linear peptides of protein X4 of SARS-CoV Urbani” value was 0.6, the “Binding of serum 1a to looped/cyclic peptides of protein X4 of SARS-CoV Urbani” value is listed as 0.8, the “Binding of serum 1b to linear peptides of protein X4 of SARS-CoV Urbani” value is reported as 0.5 and the “Binding of serum 1b to looped/cyclic peptides of protein X4 of SARS-CoV Urbani” value was determined as 0.4. Also, in experiment [1], the “Binding of serum 2 to linear peptides of protein X4 of SARS-CoV Urbani” value is listed as 0.3, the “Binding of serum 2 to looped/cyclic peptides of protein X4 of SARS-CoV Urbani” value turned out to be 0.7, the “Binding of serum 6 to linear peptides of protein X4 of SARS-CoV Urbani” value is 0.4 and the “Binding of serum 6 to looped/cyclic peptides of protein X4 of SARS-CoV Urbani” value is on record as 0.3. Moreover, in experiment [1], the “Binding of serum 37 to linear peptides of protein X4 of SARS-CoV Urbani” value turned out to be 0.6, the “Binding of serum 37 to looped/cyclic peptides of protein X4 of SARS-CoV Urbani” value amounted to 0.5, the “Binding of serum 62 to linear peptides of protein X4 of SARS-CoV Urbani” value amounted to 0.6 and the “Binding of serum 62 to looped/cyclic peptides of protein X4 of SARS-CoV Urbani” value worked out at 0.5. Besides, in experiment [1], the “Binding of serum London to linear peptides of protein X4 of SARS-CoV Urbani” value is on record as 0.7, the “Binding of serum London to looped/cyclic peptides of protein X4 of SARS-CoV Urbani” value turned out to be 0.2, the “Binding of serum SARS-green to linear peptides of protein X4 of SARS-CoV Urbani” value came out at 0.6 and the “Binding of serum SARS-green to looped/cyclic peptides of protein X4 of SARS-CoV Urbani” value is reported as 0.4. In experiment [1], the “Binding of serum SARS-yellow to linear peptides of protein X4 of SARS-CoV Urbani” value is given as 0.7 and the “Binding of serum SARS-yellow to looped/cyclic peptides of protein X4 of SARS-CoV Urbani” value is 0.5. Besides, in experiment [2], the “Binding of Control Serum Blood-Bank to Looped peptides” value is recorded as 0.7, the “Binding of Control serum Blood-bank to linear peptides” value is 0.5, the “Binding of Control serum LUMC to linear peptides” value worked out at 0.4 and the “Binding of Control serum LUMC to looped peptides” value was found to be 0.4. Further, in experiment [3], the “Rabbit serum linear peptides” value was determined as 0.3 and the “Rabbit serum looped peptides” value is given as 0.4.

The values are drawn from US20070128217A1 (priority 2003, published 2007).
